Experimental data from EP0188793A1, “Improved topical minoxidil composition” (Richardson-Vicks, Inc., priority 1984, dated 1986).

Experiment: in-vitro dripping (seepage) assay: distance traveled by a drop down an inclined glass plate
Format: physicochemical
Protocol: An in-vitro assay is utilized which measures the distance traveled by a 10 µ1 drop of the test formulation down a glass plate inclined at 45°C for 10 seconds. The test formulation is colored with dye to enhance the visual movement of the product. Pure ethanol (Ethanol, U.S.P) is used as the standard against which the test formulation is compared. […] The solvent system for each test formulation is 50:50 EtOH:HOH.
The ratio of the distance traveled ("dripping distance") by the particular test formulation to that of the ethanol standard provides the "dripping index" number for the test formulation.

SMILES: CCO [100% Ethanol, Ethanol]
- Dripping Distance (10 µ1 drop, glass plate inclined at 45°C, 10 seconds, solvent 50:50 EtOH:HOH): 60 mm
- Dripping Index (ratio of dripping distance of the test formulation to that of the ethanol standard): 1.00
